The results in this text go back to patent publication US9278914B2, “SARMs and method of use thereof” (UNIVERSITY OF TENNESSEE RESEARCH FOUNDATION, priority 2004, dated 2016).

The test system of the test is castrated (ORX) male Sprague-Dawley rats. The test is described as follows: Anabolic and androgenic activity in castrated (ORX) male rats, daily oral gavage for fourteen days. The following applies: ORX rats. Type of test: in vivo, rat. The method, then:
Male Sprague-Dawley rats weighing approximately 200 g were purchased from Harlan Bioproducts for Science (Indianapolis, Ind.).
The test article for this study was weighed and dissolved in 10% DMSO (Fisher) diluted with PEG 300 (Acros Organics, N.J.) for preparation of the appropriate dosage concentrations. […] Animals were randomly assigned to one of seven groups consisting of 4 to 5 animals per group. Control groups (intact and ORX) were administered vehicle daily. […] Where appropriate, animals were castrated on day one of the study.
In addition, ventral prostate, seminal vesicles, and levator ani muscle were removed, individually weighed, normalized to body weight, and expressed as a percentage of intact control. Student's T-test was used to compare individual dose groups to the intact control group. Significance was defined a priori as a P-value<0.05. Ventral prostate and seminal vesicle weights were evaluated as a measure of androgenic activity, whereas levator ani muscle weight was evaluated as a measure of anabolic activity. Blood was collected from the abdominal aorta, centrifuged, and sera were frozen at −80° C. prior to determination of serum hormone levels. Serum luteinizing hormone (LH) and follicle stimulating hormone (FSH) concentrations were determined.
(§1) The test article for this study was weighed and dissolved in 10% DMSO (Fisher) diluted with PEG 300 (Acros Organics, N.J.) for preparation of the appropriate dosage concentrations. […] Animals were randomly assigned to one of seven groups consisting of 4 to 5 animals per group. Control groups (intact and ORX) were administered vehicle daily. Compound of formula S-XXIII was administered via oral gavage at doses of 0.01, 0.03, 0.1, 0.3, 0.75, and 1 mg/day to both intact and ORX groups. Where appropriate, animals were castrated on day one of the study. Treatment with compound of formula S-XXIII began nine days post ORX and was administered daily via oral gavage for fourteen days.
Male Sprague-Dawley rats weighing approximately 200 g were purchased from Harlan Bioproducts for Science (Indianapolis, Ind.). […] Regenerative effects of the compound of formula S-XXIV in chronically (9 days) ORX rats was similarly evaluated.
as §1, with “S-XXIV” for “S-XXIII”
Male Sprague-Dawley rats weighing approximately 200 g were purchased from Harlan Bioproducts for Science (Indianapolis, Ind.). […] Anabolic and androgenic activity of compound of formula S-XXV in intact animals was evaluated, and the dose response in acutely orchidectomized (ORX) animals was evaluated as well.
The compound was weighed and dissolved in 10% DMSO (Fisher) diluted with PEG 300 (Acros Organics, N.J.) for preparation of the appropriate dosage concentrations.

Turning to `C[C@](O)(COc1ccc(Cl)c(F)c1)C(=O)Nc1ccc(C#N)c(C(F)(F)F)c1` [S-II, (S)-3-(4-chloro-3-fluorophenoxy)-N-(4-cyano-3-(trifluoromethyl)phenyl)-2-hydroxy-2-methylpropanamide], the “Levator ani muscle weight” value was 50%±5% (0.01 mg/day oral); 62%±6% (0.03 mg/day oral); 89%±10% (0.1 mg/day oral); 118%±6% (0.3 mg/day oral); 134%±8% (0.75 mg/day oral). For the same compound, the Prostate weight (0.01 mg/day oral) is recorded as 12%±3%; the Prostate weight (0.03 mg/day oral) is recorded as 26%±7%; the Prostate weight (0.1 mg/day oral) was 39%±6%; the Prostate weight (0.3 mg/day oral) is reported as 60%±14%; the Prostate weight (0.75 mg/day oral) is reported as 88%±16%. In addition, the Seminal vesicle weight reads like this: (0.01 mg/day oral) 11%±1%; (0.03 mg/day oral) 11%±1%; (0.1 mg/day oral) 27%±14%; (0.3 mg/day oral) 58%±18%; (0.75 mg/day oral) 86%±12%; (1 mg/day oral) 100%±8%.
